ChEMBL document CHEMBL4715760, “Balancing potency, metabolic stability and permeability in pyrrolopyrimidine-based EGFR inhibitors” (Eur J Med Chem, 2016)

Experiments:
[1] = target: T1, Epidermal growth factor receptor (Homo sapiens, UniProt P00533); test: Inhibition of human EGFR using poly[Glu:Tyr] (4:1) as substrate in presence of [gamma33P]ATP by radiometric HotSpot assay
[2] = target: Tyrosine-protein kinase Fgr (Homo sapiens) (UniProt P09769); test: Inhibition of recombinant full length human C-terminal His-tagged FGR expressed in baculovirus expression system at 500 nM using Tyr 02 peptide as substrate incubated for 1 hr in presence of ATP at its Km concentration by Z'-LYTE assay relative to control
[3] = target: Vascular endothelial growth factor receptor 1 (Homo sapiens) (UniProt P17948); test: Inhibition of recombinant human GST-tagged FLT1 catalytic domain (781 to 1338 residues) expressed in baculovirus expression system at 500 nM using Tyr 04 peptide as substrate incubated for 1 hr in presence of ATP at its Km concentration by Z'-LYTE assay relative to control
[4] = target: Tyrosine-protein kinase Lyn (Homo sapiens) (UniProt P07948); test: Inhibition of recombinant full length human GST-tagged LYN-A expressed in insect cells at 500 nM using Tyr 02 as substrate incubated for 1 hr in presence of ATP at its Km concentration by Z'-LYTE assay relative to control
[5] = target: Tyrosine-protein kinase Lyn (Homo sapiens) (UniProt P07948); test: Inhibition of recombinant full length human His-tagged LYN-B expressed in baculovirus expression system at 500 nM using Tyr 02 as substrate incubated for 1 hr in presence of ATP at its Km concentration by Z'-LYTE assay relative to contro
[6] = target: Mitogen-activated protein kinase 14 (Homo sapiens) (UniProt Q16539); test: Inhibition of recombinant human GST-tagged full length MAPK14 expressed in Escherichia coli expression system at 500 nM using Ser/Thr 04 as substrate incubated for 1 hr in presence of ATP at its Km concentration by Z'-LYTE assay relative to control
[7] = target: Focal adhesion kinase 1 (Homo sapiens) (UniProt Q05397); test: Inhibition of recombinant full length human GST-tagged PTK2 expressed in baculovirus expression system at 500 nM using Tyr 07 as substrate incubated for 1 hr in presence of ATP at its Km concentration by Z'-LYTE assay relative to control
[8] = target: Proto-oncogene tyrosine-protein kinase Src (Homo sapiens) (UniProt P12931); test: Inhibition of recombinant human His-tagged full length SRC expressed in baculovirus expression system at 500 nM using Tyr 02 as substrate incubated for 1 hr in presence of ATP at its Km concentration by Z'-LYTE assay relative to control
[9] = target: T2, Testis-specific serine/threonine-protein kinase 2 (Homo sapiens) (UniProt Q96PF2); test: Inhibition of recombinant full length human His-tagged STK22B expressed in baculovirus expression system at 500 nM using Ser/Thr 04 as substrate incubated for 1 hr in presence of ATP at its Km concentration by Z'-LYTE assay relative to control
T2 sequence (whole entry): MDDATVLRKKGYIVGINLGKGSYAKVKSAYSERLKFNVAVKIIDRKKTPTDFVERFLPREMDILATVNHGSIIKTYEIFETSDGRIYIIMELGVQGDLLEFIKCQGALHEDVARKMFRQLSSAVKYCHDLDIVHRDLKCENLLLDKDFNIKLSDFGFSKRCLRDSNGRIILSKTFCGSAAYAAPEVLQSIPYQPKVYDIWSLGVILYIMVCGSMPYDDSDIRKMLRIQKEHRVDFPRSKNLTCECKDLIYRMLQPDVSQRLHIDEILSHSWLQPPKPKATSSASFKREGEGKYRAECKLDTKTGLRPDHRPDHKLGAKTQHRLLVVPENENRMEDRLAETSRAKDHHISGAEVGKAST

[10] = target: Tyrosine-protein kinase Yes (Homo sapiens) (UniProt P07947); test: Inhibition of full length recombinant GST-tagged human YES1 expressed in baculovirus expression system at 500 nM using Tyr 02 as substrate incubated for 1 hr in presence of ATP at its Km concentration by Z'-LYTE assay relative to control
[11] = target: T1, Epidermal growth factor receptor; settings: dose 500.0 nM, time 1.0 hrs
[12] = target: T3, Serine/threonine-protein kinase Chk1 (Homo sapiens) (UniProt O14757); test: Inhibition of recombinant human full-length His-tagged CHEK1 expressed in baculovirus expression system at 500 nM using Ser/Thr 19 peptide as substrate incubated for 1 hr in presence of ATP at its Km concentration by Z'-LYTE assay relative to control
T3 sequence (whole entry): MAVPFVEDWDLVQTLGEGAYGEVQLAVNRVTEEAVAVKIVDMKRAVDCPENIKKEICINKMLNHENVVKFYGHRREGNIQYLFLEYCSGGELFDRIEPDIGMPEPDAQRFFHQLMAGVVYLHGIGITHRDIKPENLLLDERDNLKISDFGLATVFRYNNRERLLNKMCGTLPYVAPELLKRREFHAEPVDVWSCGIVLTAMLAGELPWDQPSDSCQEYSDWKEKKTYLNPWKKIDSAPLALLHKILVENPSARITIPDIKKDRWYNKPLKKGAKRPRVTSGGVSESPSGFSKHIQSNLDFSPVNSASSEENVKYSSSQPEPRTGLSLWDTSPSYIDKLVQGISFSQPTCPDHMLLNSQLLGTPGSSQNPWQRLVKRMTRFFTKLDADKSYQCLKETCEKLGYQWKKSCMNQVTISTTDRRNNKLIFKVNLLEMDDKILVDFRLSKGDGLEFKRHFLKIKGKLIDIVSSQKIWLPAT

Proto-oncogene tyrosine-protein kinase Src (Homo sapiens), sequence (P12931 2-536 limits assumed): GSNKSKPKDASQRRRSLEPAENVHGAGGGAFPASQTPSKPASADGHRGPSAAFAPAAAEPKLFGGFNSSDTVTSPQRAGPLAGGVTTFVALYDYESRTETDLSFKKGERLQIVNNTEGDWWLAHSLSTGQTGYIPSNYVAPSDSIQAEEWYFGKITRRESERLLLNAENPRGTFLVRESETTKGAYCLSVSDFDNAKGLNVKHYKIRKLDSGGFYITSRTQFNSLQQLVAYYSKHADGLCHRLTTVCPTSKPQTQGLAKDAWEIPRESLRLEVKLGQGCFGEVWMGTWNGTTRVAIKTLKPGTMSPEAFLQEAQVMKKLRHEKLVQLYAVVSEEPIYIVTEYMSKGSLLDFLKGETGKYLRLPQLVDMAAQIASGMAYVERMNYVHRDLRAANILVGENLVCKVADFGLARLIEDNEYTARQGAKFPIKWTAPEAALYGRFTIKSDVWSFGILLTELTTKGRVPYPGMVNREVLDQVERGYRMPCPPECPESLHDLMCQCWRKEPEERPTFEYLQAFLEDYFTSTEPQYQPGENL
Tyrosine-protein kinase Lyn (Homo sapiens), sequence (P07948 2-512 limits assumed): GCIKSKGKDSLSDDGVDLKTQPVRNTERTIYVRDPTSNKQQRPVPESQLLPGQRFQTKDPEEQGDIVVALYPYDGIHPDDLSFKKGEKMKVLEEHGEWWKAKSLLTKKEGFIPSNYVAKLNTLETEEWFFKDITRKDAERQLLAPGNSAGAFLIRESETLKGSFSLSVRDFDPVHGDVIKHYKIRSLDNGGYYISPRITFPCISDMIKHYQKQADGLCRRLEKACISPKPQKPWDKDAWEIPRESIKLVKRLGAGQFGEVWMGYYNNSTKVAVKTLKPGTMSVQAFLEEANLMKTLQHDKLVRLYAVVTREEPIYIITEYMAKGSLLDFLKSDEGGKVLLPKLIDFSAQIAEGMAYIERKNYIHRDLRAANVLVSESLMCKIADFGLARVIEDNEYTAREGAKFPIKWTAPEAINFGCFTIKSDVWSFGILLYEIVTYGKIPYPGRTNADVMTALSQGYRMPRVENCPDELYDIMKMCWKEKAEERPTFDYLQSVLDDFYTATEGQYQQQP
Tyrosine-protein kinase Yes (Homo sapiens), sequence (P07947 2-543 limits assumed): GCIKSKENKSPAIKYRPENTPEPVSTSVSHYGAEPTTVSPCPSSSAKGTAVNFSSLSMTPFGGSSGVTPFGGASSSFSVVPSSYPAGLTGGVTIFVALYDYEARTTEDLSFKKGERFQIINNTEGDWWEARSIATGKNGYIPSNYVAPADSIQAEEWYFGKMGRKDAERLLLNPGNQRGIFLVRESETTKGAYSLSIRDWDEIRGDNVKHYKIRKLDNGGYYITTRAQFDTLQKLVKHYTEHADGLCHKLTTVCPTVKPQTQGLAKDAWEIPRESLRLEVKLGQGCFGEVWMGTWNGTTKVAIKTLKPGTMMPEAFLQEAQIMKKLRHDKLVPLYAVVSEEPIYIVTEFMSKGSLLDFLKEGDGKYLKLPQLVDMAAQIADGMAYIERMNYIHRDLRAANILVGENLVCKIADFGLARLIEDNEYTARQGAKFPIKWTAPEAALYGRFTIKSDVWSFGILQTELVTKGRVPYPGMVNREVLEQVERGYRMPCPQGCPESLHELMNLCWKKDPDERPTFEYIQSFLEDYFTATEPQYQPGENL
Mitogen-activated protein kinase 14 (Homo sapiens), sequence (Q16539 whole entry): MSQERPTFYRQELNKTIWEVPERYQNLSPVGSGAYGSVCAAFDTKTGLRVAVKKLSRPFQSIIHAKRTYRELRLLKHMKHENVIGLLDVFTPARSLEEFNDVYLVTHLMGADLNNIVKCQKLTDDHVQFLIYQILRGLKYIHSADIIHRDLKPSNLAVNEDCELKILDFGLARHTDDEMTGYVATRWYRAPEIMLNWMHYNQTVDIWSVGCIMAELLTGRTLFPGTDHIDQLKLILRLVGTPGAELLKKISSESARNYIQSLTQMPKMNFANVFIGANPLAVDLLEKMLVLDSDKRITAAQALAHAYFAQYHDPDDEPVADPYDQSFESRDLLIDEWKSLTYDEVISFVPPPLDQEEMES
Vascular endothelial growth factor receptor 1 (Homo sapiens), sequence (P17948 whole entry, the tested form may be a part): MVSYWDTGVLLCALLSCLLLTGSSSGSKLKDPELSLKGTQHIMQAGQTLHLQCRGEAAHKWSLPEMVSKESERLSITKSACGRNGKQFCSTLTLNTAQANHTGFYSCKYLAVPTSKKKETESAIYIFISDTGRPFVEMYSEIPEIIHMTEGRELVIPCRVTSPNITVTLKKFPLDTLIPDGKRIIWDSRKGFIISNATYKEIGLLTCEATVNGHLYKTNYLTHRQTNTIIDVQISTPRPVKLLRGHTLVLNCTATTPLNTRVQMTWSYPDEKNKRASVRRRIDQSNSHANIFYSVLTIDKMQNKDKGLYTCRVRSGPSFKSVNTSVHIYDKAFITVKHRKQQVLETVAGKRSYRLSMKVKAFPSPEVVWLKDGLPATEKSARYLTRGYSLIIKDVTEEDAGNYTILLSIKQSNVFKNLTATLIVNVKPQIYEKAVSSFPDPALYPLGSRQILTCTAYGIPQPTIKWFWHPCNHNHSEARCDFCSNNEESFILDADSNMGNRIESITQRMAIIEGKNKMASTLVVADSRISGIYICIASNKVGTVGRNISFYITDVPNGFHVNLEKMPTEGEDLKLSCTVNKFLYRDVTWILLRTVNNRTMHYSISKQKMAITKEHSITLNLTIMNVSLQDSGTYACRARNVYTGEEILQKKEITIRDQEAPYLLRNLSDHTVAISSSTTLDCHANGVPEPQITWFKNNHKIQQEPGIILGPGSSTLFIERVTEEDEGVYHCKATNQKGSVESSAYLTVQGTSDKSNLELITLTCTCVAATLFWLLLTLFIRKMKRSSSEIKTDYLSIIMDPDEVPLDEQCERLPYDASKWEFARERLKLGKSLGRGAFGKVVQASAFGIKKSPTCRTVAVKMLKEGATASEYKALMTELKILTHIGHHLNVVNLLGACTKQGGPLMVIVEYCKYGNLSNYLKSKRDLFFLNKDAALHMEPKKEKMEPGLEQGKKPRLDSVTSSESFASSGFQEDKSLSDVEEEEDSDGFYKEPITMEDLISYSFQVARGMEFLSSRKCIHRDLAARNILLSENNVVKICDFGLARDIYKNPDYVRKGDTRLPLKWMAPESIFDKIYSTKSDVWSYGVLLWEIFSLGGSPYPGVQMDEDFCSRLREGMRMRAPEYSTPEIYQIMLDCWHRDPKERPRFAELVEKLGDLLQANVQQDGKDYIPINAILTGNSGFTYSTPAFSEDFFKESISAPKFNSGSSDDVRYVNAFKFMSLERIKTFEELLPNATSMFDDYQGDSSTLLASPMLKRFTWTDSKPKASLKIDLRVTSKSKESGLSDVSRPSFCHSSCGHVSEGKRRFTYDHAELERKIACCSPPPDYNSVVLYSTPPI
T1 sequence (P00533 whole entry): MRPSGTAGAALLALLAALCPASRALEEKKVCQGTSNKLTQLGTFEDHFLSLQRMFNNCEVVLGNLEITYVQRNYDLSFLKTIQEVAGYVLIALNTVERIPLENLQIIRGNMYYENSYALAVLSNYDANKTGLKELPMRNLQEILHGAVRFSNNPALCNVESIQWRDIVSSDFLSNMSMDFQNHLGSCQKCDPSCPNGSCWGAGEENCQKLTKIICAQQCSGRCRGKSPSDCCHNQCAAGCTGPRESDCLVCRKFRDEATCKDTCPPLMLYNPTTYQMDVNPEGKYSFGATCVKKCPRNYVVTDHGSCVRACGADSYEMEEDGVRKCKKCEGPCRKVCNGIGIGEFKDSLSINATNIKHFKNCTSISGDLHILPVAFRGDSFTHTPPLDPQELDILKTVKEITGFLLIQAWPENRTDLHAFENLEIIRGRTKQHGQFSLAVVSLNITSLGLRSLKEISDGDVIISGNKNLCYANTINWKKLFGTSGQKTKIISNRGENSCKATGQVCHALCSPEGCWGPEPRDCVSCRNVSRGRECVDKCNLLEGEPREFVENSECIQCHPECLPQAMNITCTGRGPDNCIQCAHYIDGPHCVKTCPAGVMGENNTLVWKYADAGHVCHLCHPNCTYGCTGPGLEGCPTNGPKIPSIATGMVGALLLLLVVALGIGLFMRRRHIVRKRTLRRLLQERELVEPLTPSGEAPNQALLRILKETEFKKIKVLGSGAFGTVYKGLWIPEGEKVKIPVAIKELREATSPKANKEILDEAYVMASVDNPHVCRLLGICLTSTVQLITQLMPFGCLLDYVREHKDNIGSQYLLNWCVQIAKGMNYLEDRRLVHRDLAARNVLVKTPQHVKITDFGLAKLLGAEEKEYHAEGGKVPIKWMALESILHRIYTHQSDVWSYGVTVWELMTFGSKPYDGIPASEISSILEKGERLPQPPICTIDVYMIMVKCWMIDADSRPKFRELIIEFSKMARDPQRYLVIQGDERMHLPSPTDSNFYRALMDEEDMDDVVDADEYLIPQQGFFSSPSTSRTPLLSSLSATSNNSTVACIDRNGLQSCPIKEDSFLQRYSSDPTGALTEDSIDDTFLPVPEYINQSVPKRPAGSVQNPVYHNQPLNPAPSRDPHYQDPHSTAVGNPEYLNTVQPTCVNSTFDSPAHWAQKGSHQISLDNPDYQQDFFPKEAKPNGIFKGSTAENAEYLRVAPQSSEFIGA
Tyrosine-protein kinase Fgr (Homo sapiens), sequence (P09769 2-529 limits assumed): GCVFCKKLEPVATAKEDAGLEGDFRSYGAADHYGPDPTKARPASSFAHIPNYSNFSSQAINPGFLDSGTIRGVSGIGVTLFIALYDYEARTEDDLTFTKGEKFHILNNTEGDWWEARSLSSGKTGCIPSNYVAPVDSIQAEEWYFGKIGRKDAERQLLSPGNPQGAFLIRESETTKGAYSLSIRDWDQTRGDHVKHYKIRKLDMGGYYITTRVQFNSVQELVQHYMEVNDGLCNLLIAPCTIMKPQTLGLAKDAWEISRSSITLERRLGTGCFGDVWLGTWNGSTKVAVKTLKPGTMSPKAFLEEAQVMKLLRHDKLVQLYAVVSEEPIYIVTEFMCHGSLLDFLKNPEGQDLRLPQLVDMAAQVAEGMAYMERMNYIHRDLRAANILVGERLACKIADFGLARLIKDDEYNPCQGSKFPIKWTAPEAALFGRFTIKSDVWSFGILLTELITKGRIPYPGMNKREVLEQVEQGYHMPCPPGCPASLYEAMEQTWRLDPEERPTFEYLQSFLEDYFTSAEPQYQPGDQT

Compound	IC50 [1] [nM]	inhibition [2] [%]	inhibition [3] [%]	inhibition [4] [%]	inhibition [5] [%]	inhibition [6] [%]	inhibition [7] [%]	inhibition [8] [%]	inhibition [9] [%]	inhibition [10] [%]	inhibition [11] [%]	inhibition [12] [%]
CCOc1ccccc1-c1cc2c(N[C@H](CO)c3ccccc3)ncnc2[nH]1	0.2	73	3	14	44	10	9	40	2	56	102	
C#Cc1cccc(Nc2ncnc3cc(OCCOC)c(OCCOC)cc23)c1 [ERLOTINIB]							-3					-7
OC[C@@H](Nc1ncnc2[nH]c(-c3ccccc3)cc12)c1ccccc1	0.8	73	8	47	60	19		59	-3	65	96	10
COc1ccccc1-c1cc2c(N[C@H](CO)c3ccccc3)ncnc2[nH]1	0.4	74	5	52	64	24	-2	59	-2	68	100	3
CN(C)CCNCc1ccc(-c2cc3c(N[C@H](CO)c4ccccc4)ncnc3[nH]2)cc1F	0.1	83	12	13	68	20	1	76	-6	81	104	
OCC[C@@H](Nc1ncnc2[nH]c(-c3ccccc3)cc12)c1ccccc1	0.5	67	-4	16	49	14	7	25	7	50	100	
